System: fusiform erythrocytes (FE)
Experiment: FE percentage by Nomarski microscopy on 400 erythrocytes, 6-month clinical study
Assay type: in vivo, human
Settings: 6 months
Procedure: The effect of the composition of the invention on FE is measured by the percentage difference in fusiform erythrocytes present in the patient's blood before and after treatment with the composition of the invention.
During the assessments blood was collected, after fasting since the previous evening, into heparinized and non-heparinized tubes. Aliquots of 5 ml were collected (2 of plasma and 1 of serum) from the brachial vein. The collected blood was immediately centrifuged and kept at −80° C. until required for the measurements. A fourth aliquot of 2 ml, without heparin, was collected for FE analysis.
FE measurements were carried out by isolating the erythrocyte pellet by centrifugation (100×g for 15 minutes at 4° C.) and diluting it in 2 ml of a citrate-phosphate-dextrose solution with adenine (CPDA) then centrifuged once more.
After centrifugation the upper part of the solution was removed and the process repeated three times always resuspending with CPDA.
Immediately after the last preparation, FE percentage was calculated using a microscope with Nomarski optics based on an analysis of 400 erythrocytes [Mohanty J G, Eckley D M, J D Williamson et al. Do red blood cell-β-amyloid interaction alter oxygen delivery in Alzheimer's disease? Adv Exp Med Biol 2008; 614:29-35.]

COc1cc2c(cc1OC)C(=O)C(CC1CCN(Cc3ccccc3)CC1)C2 (stereo not shown) [Donepezil]
effect on the number of FE (in words): improvement in the FE

From patent US9198967B2, “Pharmaceutical compositions active in preventing, stabilizing and treating Alzheimer's disease” (priority 2009, dated 2015)
